Results as given in patent US5985636A, “Method and compositions for inhibiting oxidation” (priority 1997, dated 1999).

Test system: lipid oxidation in 1-stearoyl-2-linoleoyl-sn-glycero-3-phosphocholine large unilamellar vesicles (LUVs)
Assay: Fluorescence assay for antioxidant activity (DPH-PA probe, Fe2+-induced lipid peroxidation in large unilamellar vesicles)
Assay type: biochemical
Details: pH 7.0; for % of inhibition (percent inhibition based upon Fe+2 oxidation): 21 min
Description: The fluorescent assay is described first.
Fluorescence assay for antioxidant activity (general): The need to screen large numbers of compounds or extracts for antioxidant activity requires that a model system (or systems) be employed which reasonably well represents the structural and functional characteristics of the substrate in the food product. The test must also be sensitive, rapid, and inexpensive. […] Large unilamellar vesicles consisting of 1-stearoyl-2-linoleoly-sn-glycero-3-phosphocholine are prepared, which closely resemble the properties of biological membranes, one of the primary sites of peroxidation. A fluorescent probe, 1,6-diphenylhexatriene propionic acid, is incorporated into the membranes such that the polar head group anchors the probe near the aqueous interface, while the hydrophobic portion lies parallel to the fatty acid chains. This probe reacts with the free radicals generated during peroxidation, resulting in a decrease in fluorescence intensity with time. A peroxidation initiator (such as ferrous metal ions or the free radical generator AAPH (Azobis-[2-amidinopropane hydrochloride]) is used to start the reaction, and the kinetics of fluorescence decrease are determined in the presence or absence of the antioxidant to be tested. An assay for a compound at a given concentration presently takes only twenty-one minutes, consumes only a few micrograms of lipid, and can be readily conducted with a simple fluorometer.
Briefly, the lipid is dissolved in chloroform, and is dried to a thin film using a rotary evaporator. The dried film is resuspended in an aqueous buffer, and is repeatedly extruded through a polycarbonate filter of 100 nm pore size using a Liposofast piposome extruder (Avestin, Inc., Ottawa, Canada). […] The fluorescent probe, diphenylhexatriene-propionic acid (DPH-PA), is incorporated into the vesicles during preparation at a mole ratio of 1:350 (probe:lipid). For the fluorescence experiments, LUVs containing DPH-PA is suspended at a final concentration of 100 μM in 100 mM NaCl, 50 mM tris-HEPES buffer at pH 7.0. The fluorescent probe is excited at 384 nm and emission is monitored at 423 nm. […] AAPH; the progress is monitored by the decrease of the fluorescence intensity of DPH-PA resulting from reaction with free radicals generated over twenty-one minutes. A plot of the decrease of fluorescence intensity as a function of time will be used to determine the kinetics of lipid oxidation.
^1 --Fuorescent intensity at 21 minutes.
^2 --Percent Inhibition based upon Fe^+2 oxidation.

Structure (SMILES) | % of inhibition (percent inhibition based upon Fe+2 oxidation) (2 μM) [%] | Fl. int. at 21 min. (fluorescent intensity at 21 minutes) (2 μM) | % of inhibition (percent inhibition based upon Fe+2 oxidation) (concentration not given) [%] | Fl. int. at 21 min. (fluorescent intensity at 21 minutes) (concentration not given)
Cc1cc(C(C)(C)C)c(O)c(C(C)(C)C)c1 [BHT] | 94.3 | 0.87 |  | 
CC(C)(C)c1cc(O)ccc1O [TBHQ] | 90.0 | 0.84 |  | 
Cc1c(C)c2c(c(C)c1O)CCC(C)(CCCC(C)CCCC(C)CCCC(C)C)O2 (centres unmarked) [a-Tocopherol] | 0.0 | 0.21 |  | 
C[C@@H]1O[C@@H](OC[C@H]2O[C@@H](Oc3cc4c(O)cc(O)cc4[o+]c3-c3ccc(O)c(O)c3)[C@H](O[C@@H]3O[C@H](CO)[C@@H](O)[C@H](O)[C@H]3O)[C@@H](O)[C@@H]2O)[C@H](O)[C@H](O)[C@H]1O [Anthocyanin 1, Cyanidin-3-(2"-O-β-D-glucopyranosyl-6"-O-α-L-rhamnosyl-β-D-glucopyranoside)] | 38.6 | 0.48 |  | 
COc1ccc(O)c(C(C)(C)C)c1 [BHA] | 87.1 | 0.82 |  | 
C[C@@H]1O[C@@H](OC[C@H]2O[C@@H](Oc3cc4c(O)cc(O)cc4[o+]c3-c3ccc(O)c(O)c3)[C@H](O)[C@@H](O)[C@@H]2O)[C@H](O)[C@H](O)[C@H]1O [Anthocyanin II, Cyanidin-3-(6"-O-α-L-rhamnopyranosyl-β-D-glucopyranoside)] |  |  | 70.0 | 0.7
CCCOC(=O)c1cc(O)c(O)c(O)c1 [Propyl gallate] | 78.6 | 0.76 |  | 
